In US9212173B2, “Pyrazole aminopyrimidine derivatives as LRRK2 modulators” (Genentech, Inc., priority 2012, dated 2015):

Target: LRRK2 (Homo sapiens (Human), UniProt Q5S007, G2019S)
Assay: In Vitro LRRK2 Assay (LRRK2 Ki)
Type: biochemical
Method: In Vitro LRRK2 Lanthascreen Binding Assay
This assay was used to determine a compound's potency in inhibiting activity of LRRK2 by determining, Kiapp, IC50, or percent inhibition values.
Binding of the Alexa Fluor® “tracer” to a kinase is detected by addition of a Eu-labeled anti-GST antibody.
12 pt curve. […] Stamp 5 ul to assay plate. Final top test concentration 100 uM
In Reaction Buffer, 5 ul of DMSO (3%) was added to total and blank wells and 5 ul of Eu-labeled anti-GST antibody (6 nM) was added to blank wells. Add 5 ul LRRK2 (30 nM)/Eu-labeled anti-GST antibody (6 nM) mix to compound and total wells.
Incubate plates at room temperature for 1 hour on a plate shaker (gentle shaking). Read on Perkin Elmer EnVision reader HTRF protocol
Subtract mean background values from all data points. Calculate % of control for each test value. Plot % of control vs Compound concentration. Calculate Ki Value (xlfit curve fitting-Morrison equation). Results expressed as a Ki in μM. Equation for Ki: Y=V0*(1−((x+Ki*(1+S/Km)+Et)/(2*Et)−(((x+Ki*(1+S/Km)+Et)^2−(4*Et*x))^0.5)/(2*Et)))
This assay was used to determine a compound's potency in inhibiting activity of LRRK2 by determining, Kiapp, IC50, or percent inhibition values. In a polypropylene plate, LRRK2, fluorescently-labeled peptide substrate, ATP and test compound were incubated together. Using a LabChip 3000 (Caliper Life Sciences), after the reaction the substrate was separated by capillary electrophoresis into two populations: phosphorylated and unphosphorylated. The relative amounts of each were quantitated by fluorescence intensity. LRRK2 Ki was determined according to the equation: Y=V0*(1−((x+Ki*(1+S/Km)+Et)/(2*Et)−(((x+Ki*(1+S/Km)+Et)^2−(4*Et*x))^0.5)/(2*Et))).
Ki values in Table 4 and elsewhere herein are shown in μM.
For serial dilutions, 34.6 μl DMSO was added to columns 3-24.
In Complete Reaction Buffer, substrate was diluted to 4 μM. Equal volumes of Complete Reaction Buffer and 4 μM substrate were combined to obtain the blank. Equal volumes of Complete Reaction Buffer and 4 μM substrate were combined and to the combined solution was added 2× final LRRK2 concentration.
To a 50 μl polypropylene plate, 5 μl/well buffer/substrate was added by hand to Blank wells. A Biomek FX was used to start the kinase reaction (“PLK SAR 23 ATP”). The following were added to the appropriate wells:
The plate was incubated for 2 hours in the dark. Biomek FX was used to stop the kinase reaction (“PLK Stop”), and 10 μl/well Stop solution was added to the Assay Plate. Results were read on the LabChip 3000.
The LabChip 3000 was run using the job “LRRK2 IC50” with the following job settings: […]

Sequence of LRRK2 (Q5S007 whole entry G2019S): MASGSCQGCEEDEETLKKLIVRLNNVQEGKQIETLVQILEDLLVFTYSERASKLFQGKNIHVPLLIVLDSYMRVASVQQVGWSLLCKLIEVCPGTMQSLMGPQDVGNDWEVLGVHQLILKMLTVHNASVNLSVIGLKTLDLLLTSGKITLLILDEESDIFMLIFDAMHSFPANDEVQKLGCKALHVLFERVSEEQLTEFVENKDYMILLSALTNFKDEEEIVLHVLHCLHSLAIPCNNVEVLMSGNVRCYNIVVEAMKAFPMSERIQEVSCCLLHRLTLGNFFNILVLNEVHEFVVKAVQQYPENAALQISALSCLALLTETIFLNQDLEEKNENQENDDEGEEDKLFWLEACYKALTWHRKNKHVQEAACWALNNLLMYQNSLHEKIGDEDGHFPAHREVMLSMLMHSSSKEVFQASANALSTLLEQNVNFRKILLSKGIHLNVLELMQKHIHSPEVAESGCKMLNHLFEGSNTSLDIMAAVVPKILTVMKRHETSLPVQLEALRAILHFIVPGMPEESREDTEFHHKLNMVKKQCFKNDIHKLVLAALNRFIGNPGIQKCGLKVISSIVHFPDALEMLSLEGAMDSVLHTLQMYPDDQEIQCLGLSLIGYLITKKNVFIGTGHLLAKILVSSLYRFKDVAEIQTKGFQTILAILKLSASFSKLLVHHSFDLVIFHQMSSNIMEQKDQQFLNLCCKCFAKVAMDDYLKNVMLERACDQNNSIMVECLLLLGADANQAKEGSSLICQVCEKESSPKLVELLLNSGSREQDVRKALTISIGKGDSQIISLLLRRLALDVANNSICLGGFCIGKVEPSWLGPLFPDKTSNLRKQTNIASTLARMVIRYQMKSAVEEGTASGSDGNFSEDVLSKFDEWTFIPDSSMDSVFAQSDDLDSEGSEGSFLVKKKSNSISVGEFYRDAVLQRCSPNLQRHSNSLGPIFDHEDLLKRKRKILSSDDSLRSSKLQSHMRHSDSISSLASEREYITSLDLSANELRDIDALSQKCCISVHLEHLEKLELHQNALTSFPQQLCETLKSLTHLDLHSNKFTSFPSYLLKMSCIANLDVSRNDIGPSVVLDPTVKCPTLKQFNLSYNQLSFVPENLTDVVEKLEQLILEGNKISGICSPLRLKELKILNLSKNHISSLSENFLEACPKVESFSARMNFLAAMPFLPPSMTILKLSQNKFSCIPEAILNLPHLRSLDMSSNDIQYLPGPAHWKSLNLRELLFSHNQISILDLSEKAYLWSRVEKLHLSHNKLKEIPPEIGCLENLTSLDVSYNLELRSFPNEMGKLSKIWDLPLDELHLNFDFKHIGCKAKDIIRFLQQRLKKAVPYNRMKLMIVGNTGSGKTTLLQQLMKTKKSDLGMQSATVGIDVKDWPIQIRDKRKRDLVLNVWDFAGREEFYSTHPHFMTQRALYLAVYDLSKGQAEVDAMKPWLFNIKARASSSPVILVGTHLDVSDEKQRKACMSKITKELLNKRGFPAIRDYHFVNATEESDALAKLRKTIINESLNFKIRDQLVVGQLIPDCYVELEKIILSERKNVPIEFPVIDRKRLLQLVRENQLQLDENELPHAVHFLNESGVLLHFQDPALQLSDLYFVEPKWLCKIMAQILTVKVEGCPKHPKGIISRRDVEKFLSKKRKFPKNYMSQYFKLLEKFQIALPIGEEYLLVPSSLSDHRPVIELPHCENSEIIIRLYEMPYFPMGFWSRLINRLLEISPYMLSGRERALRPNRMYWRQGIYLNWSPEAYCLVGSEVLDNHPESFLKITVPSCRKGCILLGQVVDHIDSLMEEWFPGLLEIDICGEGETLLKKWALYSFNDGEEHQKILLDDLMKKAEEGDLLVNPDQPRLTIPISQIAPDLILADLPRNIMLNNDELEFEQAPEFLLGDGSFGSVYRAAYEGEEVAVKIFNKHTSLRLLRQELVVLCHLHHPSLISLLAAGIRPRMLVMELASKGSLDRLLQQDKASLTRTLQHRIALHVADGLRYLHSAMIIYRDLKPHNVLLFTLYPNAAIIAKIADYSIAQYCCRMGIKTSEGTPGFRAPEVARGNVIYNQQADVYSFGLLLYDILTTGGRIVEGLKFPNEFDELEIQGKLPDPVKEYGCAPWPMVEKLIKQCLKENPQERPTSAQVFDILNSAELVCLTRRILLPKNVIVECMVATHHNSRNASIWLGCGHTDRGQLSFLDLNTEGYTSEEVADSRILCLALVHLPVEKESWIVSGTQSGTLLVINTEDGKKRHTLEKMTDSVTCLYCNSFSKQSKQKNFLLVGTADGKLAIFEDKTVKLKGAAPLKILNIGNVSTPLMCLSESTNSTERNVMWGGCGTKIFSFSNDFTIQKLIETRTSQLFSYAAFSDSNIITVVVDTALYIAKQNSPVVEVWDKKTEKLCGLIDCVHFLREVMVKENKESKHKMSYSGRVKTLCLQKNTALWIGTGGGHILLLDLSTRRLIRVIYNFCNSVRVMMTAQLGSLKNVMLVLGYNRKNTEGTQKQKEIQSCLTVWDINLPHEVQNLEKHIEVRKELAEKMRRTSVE

| Ki [nM] | Structure (SMILES) |
| --- | --- |
| 0.6 | CNc1nc(Nc2cn(C3CCOC[C@H]3F)nc2C)ncc1C(F)(F)F (stereo in doubt) [Example 37, N2-(1-(3-fluorotetrahydro-2H-pyran-4-yl)-3-methyl-1H-pyrazol-4-yl)-N4-methyl-5-(trifluoromethyl)pyrimidine-2,4-diamine] |
| 2.8 | CNc1nc(Nc2cnn(C3CCOC[C@H]3F)c2C)ncc1C(F)(F)F (stereo in doubt) [Example 39, N2-(1-(3-fluorotetrahydro-2H-pyran-4-yl)-5-methyl-1H-pyrazol-4-yl)-N4-methyl-5-(trifluoromethyl)pyrimidine-2,4-diamine] |
| 7.3 | Cc1c(Nc2ncc(C#N)c(NC3CC3)n2)cnn1C1CCOCC1 [Example 3, 4-(cyclopropylamino)-2-((5-methyl-1-(tetrahydro-2H-pyran-4-yl)-1H-pyrazol-4-yl)amino)pyrimidine-5-carbonitrile] |
| 6.2 | CCNc1nc(Nc2cnn(C3CCOCC3)c2Cl)ncc1C#N [Example 7, 2-((5-chloro-1-(tetrahydro-2H-pyran-4-yl)-1H-pyrazol-4-yl)amino)-4-(ethylamino)pyrimidine-5-carbonitrile] |
| 4.8 | CNc1nc(Nc2cn(C(C)(C)CO)nc2C)ncc1C(F)(F)F [Example 9, 2-methyl-2-(3-methyl-4-((4-(methylamino)-5-(trifluoromethyl)pyrimidin-2-yl)amino)-1H-pyrazol-1-yl)propan-1-ol] |
| 5 | CNc1nc(Nc2cnn(CC3(O)CC3)c2Cl)ncc1C(F)(F)F [Example 10, 1-((5-chloro-4-((4-(methylamino)-5-(trifluoromethyl)pyrimidin-2-yl)amino)-1H-pyrazol-1-yl)methyl)cyclopropanol] |
| 4.8 | CNc1nc(Nc2cn(C3(C)COC3)nc2C)ncc1C(F)(F)F [Example 15, N4-methyl-N2-(3-methyl-1-(3-methyloxetan-3-yl)-1H-pyrazol-4-yl)-5-(trifluoromethyl)pyrimidine-2,4-diamine] |
| 140 | CNc1nc(Nc2cn(C(C)(C)c3nc(C)cn3C)nc2C)ncc1C(F)(F)F [Example 16, N2-(1-(2-(1,4-dimethyl-1H-imidazol-2-yl)propan-2-yl)-3-methyl-1H-pyrazol-4-yl)-N4-methyl-5-(trifluoromethyl)pyrimidine-2,4-diamine] |
| 3.82 | CNc1nc(Nc2cn(C(C)(C)c3ncc(C)o3)nc2C)ncc1C(F)(F)F [Example 18, N4-methyl-N2-(3-methyl-1-(2-(5-methyloxazol-2-yl)propan-2-yl)-1H-pyrazol-4-yl)-5-(trifluoromethyl)pyrimidine-2,4-diamine] |
| 0.975 | CCNc1nc(Nc2cn(C3(C)COC3)nc2C)ncc1C(F)(F)F [Example 19, N4-ethyl-N2-(3-methyl-1-(3-methyloxetan-3-yl)-1H-pyrazol-4-yl)-5-(trifluoromethyl)pyrimidine-2,4-diamine] |
| 0.96 | CCNc1nc(Nc2cn(S(=O)(=O)CCOC)nc2C)ncc1C(F)(F)F [Example 20, N4-ethyl-N2-(1-((2-methoxyethyl)sulfonyl)-3-methyl-1H-pyrazol-4-yl)-5-(trifluoromethyl)pyrimidine-2,4-diamine] |
| 1.85 | CNc1nc(Nc2cn(S(=O)(=O)CCOC)nc2C)ncc1C(F)(F)F [Example 21, N2-(1-((2-methoxyethyl)sulfonyl)-3-methyl-1H-pyrazol-4-yl)-N4-methyl-5-(trifluoromethyl)pyrimidine-2,4-diamine] |
| 6.46 | CNc1nc(Nc2cnn(S(=O)(=O)CCOC)c2C)ncc1C(F)(F)F [Example 22, N2-(1-((2-methoxyethyl)sulfonyl)-5-methyl-1H-pyrazol-4-yl)-N4-methyl-5-(trifluoromethyl)pyrimidine-2,4-diamine] |
| 1.1 | CCNc1nc(Nc2cnn(C(C)(C)c3nncn3C)c2Cl)ncc1C(F)(F)F [Example 23, N2-(5-chloro-1-(2-(4-methyl-4H-1,2,4-triazol-3-yl)propan-2-yl)-1H-pyrazol-4-yl)-N4-ethyl-5-(trifluoromethyl)pyrimidine-2,4-diamine] |
| 16.6 | CNc1nc(Nc2cnn(CC(C)c3ccn(C)n3)c2C)ncc1C(F)(F)F (stereo not shown) [Example 24, N4-methyl-N2-(5-methyl-1-(2-(1-methyl-1H-pyrazol-3-yl)propyl)-1H-pyrazol-4-yl)-5-(trifluoromethyl)pyrimidine-2,4-diamine] |
| 108 | CNc1nc(Nc2cnn(CC(C)c3ccn(C)n3)c2C)ncc1C(F)(F)F (stereo not shown) [Example 25, N4-methyl-N2-(5-methyl-1-(2-(1-methyl-1H-pyrazol-3-yl)propyl)-1H-pyrazol-4-yl)-5-(trifluoromethyl)pyrimidine-2,4-diamine] |
| 4.3 | CNc1nc(Nc2cn(C(C)(C)c3ncccn3)nc2C)ncc1C(F)(F)F [Example 26, N4-methyl-N2-(3-methyl-1-(2-(pyrimidin-2-yl)propan-2-yl)-1H-pyrazol-4-yl)-5-(trifluoromethyl)pyrimidine-2,4-diamine] |
| 3.7 | CCNc1nc(Nc2cn(C(C)(C)c3nnc(C)o3)nc2Cl)ncc1C(F)(F)F [Example 27, N2-(3-chloro-1-(2-(5-methyl-1,3,4-oxadiazol-2-yl)propan-2-yl)-1H-pyrazol-4-yl)-N4-ethyl-5-(trifluoromethyl)pyrimidine-2,4-diamine] |
| 6.5 | CCNc1nc(Nc2cn(C(C)(C)c3nnc(CC)o3)nc2C)ncc1C(F)(F)F [Example 29, N4-ethyl-N2-(1-(2-(5-ethyl-1,3,4-oxadiazol-2-yl)propan-2-yl)-3-methyl-1H-pyrazol-4-yl)-5-(trifluoromethyl)pyrimidine-2,4-diamine] |
| 0.6 | CCNc1nc(Nc2cn(C(C)(C)c3ncn(C(C)C)n3)nc2C)ncc1C(F)(F)F [Example 30, N4-ethyl-N2-(1-(2-(1-isopropyl-1H-1,2,4-triazol-3-yl)propan-2-yl)-3-methyl-1H-pyrazol-4-yl)-5-(trifluoromethyl)pyrimidine-2,4-diamine] |
| 42.5 | CCNc1nc(Nc2cn(C(C)(C)c3nncn3C)nc2Cl)ncc1C(F)(F)F [Example 31, N2-(3-chloro-1-(2-(4-methyl-4H-1,2,4-triazol-3-yl)propan-2-yl)-1H-pyrazol-4-yl)-N4-ethyl-5-(trifluoromethyl)pyrimidine-2,4-diamine] |
| 0.5 | CCNc1nc(Nc2cn(C(C)(C)c3ncn(C)n3)nc2Cl)ncc1C(F)(F)F [Example 32, N2-(3-chloro-1-(2-(1-methyl-1H-1,2,4-triazol-3-yl)propan-2-yl)-1H-pyrazol-4-yl)-N4-ethyl-5-(trifluoromethyl)pyrimidine-2,4-diamine] |
| 2 | CNc1nc(Nc2cnn(CCc3ccn(C)n3)c2C)ncc1C(F)(F)F [Example 33, N4-methyl-N2-(5-methyl-1-(2-(1-methyl-1H-pyrazol-3-yl)ethyl)-1H-pyrazol-4-yl)-5-(trifluoromethyl)pyrimidine-2,4-diamine] |
| 3.7 | CNc1nc(Nc2cn(CCc3ccn(C)n3)nc2C)ncc1C(F)(F)F [Example 36, N4-methyl-N2-(3-methyl-1-(2-(1-methyl-1H-pyrazol-3-yl)ethyl)-1H-pyrazol-4-yl)-5-(trifluoromethyl)pyrimidine-2,4-diamine] |
| 0.6 | CNc1nc(Nc2cnn(C3CCOC[C@@H]3F)c2C)ncc1C(F)(F)F (stereo partly drawn) [Example 40, N2-(1-((3R)-3-fluorotetrahydro-2H-pyran-4-yl)-5-methyl-1H-pyrazol-4-yl)-N4-methyl-5-(trifluoromethyl)pyrimidine-2,4-diamine] |
| 12.8 | CNc1nc(Nc2cn(C(C)(C)CC#N)nc2C)ncc1C(F)(F)F [Example 41, 3-methyl-3-(3-methyl-4-((4-(methylamino)-5-(trifluoromethyl)pyrimidin-2-yl)amino)-1H-pyrazol-1-yl)butanenitrile] |
| 4.1 | CCC(C#N)Cn1cc(Nc2ncc(C(F)(F)F)c(NC)n2)c(C)n1 (stereo not shown) [Example 42, 2-((3-methyl-4-((4-(methylamino)-5-(trifluoromethyl)pyrimidin-2-yl)amino)-1H-pyrazol-1-yl)methyl)butanenitrile] |

| Structure (SMILES) | Ki [nM] |
| --- | --- |
| CCNc1nc(Nc2cc(C(C)(C)C#N)nn2C)ncc1C(F)(F)F [Example 44, 2-(5-((4-(ethylamino)-5-(trifluoromethyl)pyrimidin-2-yl)amino)-1-methyl-1H-pyrazol-3-yl)-2-methylpropanenitrile] | 0.7 |
